Source: the NIST ThermoML archive (doi:10.1016/j.jct.2011.09.008)

Assay: xn = mol fraction of the nth substance listed
Settings: 101 kPa, Liquid, Sing-around technique in a fixed-path interferometer

CCCOCC(C)O (stereo not given) [1-propoxy-2-propanol] + O
speed of sound [m/s]
Settings	293.15 K	298.15 K	303.15 K
x1 = 0.00326	–	1514.2	1527.5
x1 = 0.00845	–	1538.8	1548.3
x1 = 0.01369	–	1560.1	1565.5
x1 = 0.01942	–	1579.2	1581.5
x1 = 0.02453	–	1586.7	1585.7
x1 = 0.02855	–	1587.7	1582.4
x1 = 0.03532	–	1575.1	1566.6
x1 = 0.04675	–	1547.1	1536.8
x1 = 0.06359	–	1513.5	1501.6
x1 = 0.08224	–	1486	1472.6
x1 = 0.09758	–	1467.8	1454
x1 = 0.1185	–	1448.6	1434
x1 = 0.145	–	1429.6	1414.6
x1 = 0.1945	–	1403.7	1388.4
x1 = 0.2213	1407.9	1392.7	1377.5
x1 = 0.2686	1391.7	1376	1360.6
x1 = 0.3432	1370.8	1354.5	1338.5
x1 = 0.4424	1347.8	1330.9	1314.2
x1 = 0.5415	1328.4	1311	1293.7
x1 = 0.6444	1310.8	1293	1275.3
x1 = 0.7056	1301.3	1283.3	1265.3
x1 = 0.7569	1293.9	1275.7	1257.7
x1 = 0.7951	1288.7	1270.4	1252.4
x1 = 0.8374	1283.2	1264.8	1246.5
x1 = 0.88	1277.8	1259.4	1240.9
x1 = 0.9193	1273.4	1254.8	1236.5
x1 = 0.9597	1268.9	1250.2	1231.7
x1 = 1	1264.5	1245.8	1227.3
